Experimental data taken from paper PMC7247349, “Reactions of Plasmodium falciparum Ferredoxin:NADP^+ Oxidoreductase with Redox Cycling Xenobiotics: A Mechanistic Study” (International Journal of Molecular Sciences, 2020).

Assays:
[1] = target: T1, Ferredoxin:NADP^+ oxidoreductase (PfFNR) (Plasmodium falciparum, UniProt C6KT68); experiment: steady-state kinetics; competitive inhibition versus AcPyP+ in transhydrogenase reaction; stopped-flow FAD reduction; type: biochemical
T1 construct: gene FNR; recombinant PfFNR
Text: steady-state kinetics; competitive inhibition versus AcPyP+ in transhydrogenase reaction; stopped-flow FAD reduction on Ferredoxin:NADP^+ oxidoreductase (PfFNR) | NADPH acts as a competitive inhibitor to AcPyP^+, occupying the pyridine nucleotide binding site of the reduced enzyme form

[2] = target: T1, Ferredoxin:NADP^+ oxidoreductase (PfFNR); experiment: steady-state product inhibition of juglone reductase reaction; type: biochemical

T1 sequence (C6KT68 56-371): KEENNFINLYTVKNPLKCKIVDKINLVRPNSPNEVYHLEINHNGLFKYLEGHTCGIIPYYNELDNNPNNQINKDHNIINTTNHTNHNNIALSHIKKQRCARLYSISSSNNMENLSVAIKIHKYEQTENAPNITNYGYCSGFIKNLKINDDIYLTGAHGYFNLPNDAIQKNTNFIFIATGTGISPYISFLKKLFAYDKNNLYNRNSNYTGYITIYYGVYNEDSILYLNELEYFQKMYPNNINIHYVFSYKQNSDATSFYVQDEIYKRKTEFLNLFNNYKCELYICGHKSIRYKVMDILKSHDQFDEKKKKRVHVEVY

Row | SMILES | Ki [1] | Ki [2]
1 | NC(=O)C1=CN([C@@H]2O[C@H](COP(=O)(O)OP(=O)(O)OC[C@H]3O[C@@H](n4cnc5c(N)ncnc54)[C@H](OP(=O)(O)O)[C@@H]3O)[C@@H](O)[C@H]2O)C=CC1 [NADPH] | 140 ± 20 µM | 
2 | NC(=O)c1ccc[n+]([C@@H]2O[C@H](COP(=O)([O-])OP(=O)(O)OC[C@H]3O[C@@H](n4cnc5c(N)ncnc54)[C@H](OP(=O)(O)O)[C@@H]3O)[C@@H](O)[C@H]2O)c1 [NADP^+] |  | 1420 ± 130 µM
